Counter-ions that a name gives are not always drawn.

One experiment concerns ddY female mouse. In words: Effect of test compound on hypoxia (antihypoxic activity). The format is in vivo. The following applies: po, 100 mg/kg orally, placed in chamber (4% oxygen, 96% nitrogen) after 1 hour from the administration, survival time relative to control, read-out: Antihypoxic activity (%). The method, then:
A test compound dissolved in physiological saline (100 mg/kg) was orally administered to a ddY female mouse (5-6 weeks old, each group consisting of 10 mice). After 1 (or 30 minutes*) hour from the administration, each mouse was placed in a 300-ml glass chamber, and a gas mixture consisting of 4% of oxygen and 96% of nitrogen was passed through the chamber at a rate of 5 liters/min. A time from the start of gas passing to the death of each mouse was measured.
To a control mice group was orally administered only physiological saline.
The antihypoxic activity of the test compound was calculated from the following formula: [formula]
On to `OC(COCCN1CCCCC1)c1cccc(Cl)c1` (centres unmarked) [compound 36], for which the response vs control in vivo at 100 mg/kg came out at 139%. With `CN(C)CCOCC(O)c1ccc(OCc2ccc(Cl)cc2)cc1` (centres unmarked) [compound 49], the response vs control in vivo at 100 mg/kg worked out at 151%. For the compound `CN(C)CCOCC(O)c1ccc(-c2ccccc2)cc1` (centres unmarked) [compound 56], the response vs control in vivo at 100 mg/kg was determined as 182%. On the same count and under the same terms, in the case of `Cc1cccc(C(O)COCC2CNCCO2)c1` (centres unmarked) [compound 152] it was 180%; in that of `OC(COCC1CNCCO1)c1cccc(Cl)c1` (centres unmarked) [compound 153], 185%.

Consider `OC(COCCN1CCN(C(c2ccccc2)c2ccccc2)CC1)c1ccccc1` (centres unmarked) [compound 167], for which the response vs control in vivo at 100 mg/kg was determined as 165%. For the compound `CC(=O)N(C)CCOCC(O)c1ccccc1` (centres unmarked) [compound 181], the response vs control in vivo at 100 mg/kg was 132%. Same read-out and setting: in the case of `COC(COCCN(C)C)c1ccc(OCc2ccccc2)cc1` (centres unmarked) [compound 213] it was 149%. Still for that read-out and setting: next, `Cn1cncc1COCC(O)c1ccc(OCc2ccccc2)cc1` (centres unmarked) [compound 215, 1-(4-Benzyloxyphenyl)-2-[(1-methylimidazol-5-yl)-methoxy]ethanol]: 197%; `CN(C)CCOCC(O)c1ccc(F)c2ccccc12` (centres unmarked) [compound 231]: 246%; `Cc1ccc(C(O)COCCN(C)C)c2ccccc12` (centres unmarked) [compound 232]: 150%.

`OC(COCCN1CCCCC1)c1ccc2ccccc2c1` (centres unmarked) [compound 238]: the response vs control in vivo at 100 mg/kg amounted to 123%.

For `CCN(CC)CCOCC(O)c1cccc2ccccc12` (centres unmarked) [compound 243], the response vs control in vivo at 100 mg/kg came out at 159%.

Still in this experiment, the particulars now being: po, 0.5 h, 100 mg/kg orally, placed in chamber (4% oxygen, 96% nitrogen) after 30 minutes from the administration (values marked *), survival time relative to control, read-out: Antihypoxic activity (%).
Take `Cc1ccccc1C(O)COCCN(C)C` (centres unmarked) [compound 14]: the response vs control in vivo at 100 mg/kg worked out at 184%.

For the compound `CN(C)CCOCC(O)c1ccc(C(C)(C)C)cc1` (centres unmarked) [compound 19], the response vs control in vivo at 100 mg/kg was 168%. For the compound `Cc1cccc(C(O)COCCCCN(C)C)c1` (centres unmarked) [compound 23], the response vs control in vivo at 100 mg/kg was 241%. `Cc1cc(C)cc(C(O)COCCN(C)C)c1` (centres unmarked) [compound 27]: the response vs control in vivo at 100 mg/kg was 201%. For `CN(C)CCOCC(O)c1ccc(OCc2ccccn2)cc1` (centres unmarked) [compound 84], the response vs control in vivo at 100 mg/kg is 175%. `CN(C)CCOCC(O)c1c(Cl)cccc1Cl` (centres unmarked) [compound 96]: the response vs control in vivo at 100 mg/kg is 176%.

For `COc1cc(C(O)COCCN(C)C)ccc1OCc1ccccc1` (centres unmarked) [compound 98], the response vs control in vivo at 100 mg/kg is 164%. In the case of `OC(COCCN1CCOCC1)c1ccc(OCc2ccccc2)cc1` (centres unmarked) [compound 100], the response vs control in vivo at 100 mg/kg turned out to be 171%. In the case of `NCCOCC(O)c1ccccc1` (centres unmarked) [compound 102], the response vs control in vivo at 100 mg/kg turned out to be 140%. As to `Cc1cccc([C@@H](O)COCCN(C)C)c1` [compound 104], the response vs control in vivo at 100 mg/kg was 160%. In the case of `OC(COCc1cccnc1)c1ccc(OCc2ccccc2)cc1` (centres unmarked) [compound 121], the response vs control in vivo at 100 mg/kg amounted to 149%. `OC(COCc1ccccn1)c1ccccc1` (centres unmarked) [compound 122]: the response vs control in vivo at 100 mg/kg is 142%.

`OC(COCc1ccncc1)c1ccccc1` (centres unmarked) [compound 123]: the response vs control in vivo at 100 mg/kg came out at 140%. As for `Cc1cccc(C(O)COCc2cccnc2)c1` (centres unmarked) [compound 125], the response vs control in vivo at 100 mg/kg was 172%. With `O[C@H](COCc1cccnc1)c1ccccc1` [compound 129], the response vs control in vivo at 100 mg/kg was found to be 158%.

As to `COc1ccc(C(O)COCc2cccnc2)cc1` (centres unmarked) [compound 131], the response vs control in vivo at 100 mg/kg is 167%.

For the compound `O[C@@H](COCC1CNCCS1)c1ccccc1` (some centres unmarked) [compound 134], the response vs control in vivo at 100 mg/kg turned out to be 201%. `OC(COCc1c[nH]cn1)c1ccc(OCc2ccccc2)cc1` (centres unmarked) [compound 137]: the response vs control in vivo at 100 mg/kg came to 163%. As for `OC(COCc1cccnc1)c1cccc(Oc2ccccc2)c1` (centres unmarked) [compound 139], the response vs control in vivo at 100 mg/kg was 162%. With `CC(=O)OC(COCCN(C)C)c1cccc(C)c1` (centres unmarked) [compound 180], the response vs control in vivo at 100 mg/kg came to 176%. In the case of `CC(=O)OC(COCCN(C)C)c1ccc(-c2ccccc2)cc1` (centres unmarked) [compound 187], the response vs control in vivo at 100 mg/kg came to 153%. Turning to `CC(=O)OC(COCc1cccnc1)c1ccccc1` (centres unmarked) [compound 188], the response vs control in vivo at 100 mg/kg turned out to be 144%.

On to `CN1CCN(CCOCC(O)c2ccc(OCc3ccccc3)cc2)CC1` (centres unmarked) [compound 195], for which the response vs control in vivo at 100 mg/kg stood at 176%.

For `CN(CCOCC(O)c1ccc(OCc2ccccc2)cc1)C1CC1` (centres unmarked) [compound 203], the response vs control in vivo at 100 mg/kg is 177%. Still for that read-out and setting: next, `OC(COCCNC1CC1)c1ccc(OCc2ccccc2)cc1` (centres unmarked) [compound 204]: 176%; `Cc1cccc(C(O)COCCNC2CC2)c1` (centres unmarked) [compound 208]: 242%; `CC(C)(C)NCCOCC(O)c1ccccc1` (centres unmarked) [compound 211]: 177%. The same measure, in the same setting: in the case of `O[C@H](COC[C@@H]1CNCCO1)c1ccccc1` [compound 218, (1S,2'S)-1-phenyl-2-[(morpholin-2-yl)methoxy]ethanol oxalate] it was 157%; in that of `CC(CN(C)C)OCC(O)c1cccc2ccccc12` (centres unmarked) [compound 250], 145%; in that of `CN(C)CCOCC(O)c1ccc2c(c1)CCC2` (centres unmarked) [compound 252], 190%.

In the case of `CN1CCC=C(COCC(O)c2cccc3ccccc23)C1` (centres unmarked) [compound 271], the response vs control in vivo at 100 mg/kg is 150%. Still for that read-out and setting: in the case of `OC(COCc1cccnc1)c1ccc2ccccc2c1` (centres unmarked) [compound 272] it was 185%; in that of `CN(C)CCOCC(O)c1cccc2ccsc12` (centres unmarked) [compound 320], 212%; in that of `OC(COCCN1CCCCC1)c1ccc2sccc2c1` (centres unmarked) [compound 330], 242%. In the case of `CN(C)CCOCC(O)c1ccc2c(c1)CCS2` (centres unmarked) [compound 332], the response vs control in vivo at 100 mg/kg worked out at 230%.

Regarding `CC(COCC(O)c1ccc2sccc2c1)N(C)C` (centres unmarked) [compound 338], the response vs control in vivo at 100 mg/kg came out at 144%.

For the compound `OC(COCc1cccnc1)c1ccc2occc2c1` (centres unmarked) [compound 339, 1-(benzo[b]furan-5-yl)-2-(pyridin-3-yl-methxoy)ethanol], the response vs control in vivo at 100 mg/kg was determined as 131%. Same read-out and setting: in the case of `OC(COCc1cccnc1)c1ccc2sccc2c1` (centres unmarked) [compound 340] it was 163%. For the compound `OC(COCC1CNCCO1)c1ccc2sccc2c1` (centres unmarked) [compound 343], the response vs control in vivo at 100 mg/kg was 160%.

Regarding `CN1CCCC(COCC(O)c2ccc3sccc3c2)C1` (centres unmarked) [compound 344], the response vs control in vivo at 100 mg/kg came out at 268%. With `CN1CCC=C(COCC(O)c2ccc3sccc3c2)C1` (centres unmarked) [compound 345], the response vs control in vivo at 100 mg/kg is 185%.

Take `OC(COCCNC1CC1)c1ccc2sccc2c1` (centres unmarked) [compound 348]: the response vs control in vivo at 100 mg/kg was determined as 251%.

On to `CN1CCN(CCOCC(O)c2ccc3sccc3c2)CC1` (centres unmarked) [compound 349], for which the response vs control in vivo at 100 mg/kg came out at 209%. For the compound `OC(COCCNC12CC3CC(CC(C3)C1)C2)c1ccc2sccc2c1` (centres unmarked) [compound 353], the response vs control in vivo at 100 mg/kg is 132%. On to `NCCOCC(O)c1ccc2sccc2c1` (centres unmarked) [compound 357, 1-(benzo[b]thiophen-5-yl)-2-(2-aminoethoxy)ethanol 1/2 fumarate], for which the response vs control in vivo at 100 mg/kg stood at 189%. With `OC(COCc1c[nH]cn1)c1ccc2sccc2c1` (centres unmarked) [compound 358, 1-(benzo[b]thiophen-5-yl)-2-[(imidazolyl)methoxy]ethanol], the response vs control in vivo at 100 mg/kg came to 211%. Take `CN(C)CCOCC(O)c1ccc2[nH]ccc2c1` (centres unmarked) [compound 365]: the response vs control in vivo at 100 mg/kg was 155%. Regarding `OC(COCCCNC1CC1)c1ccc2sccc2c1` (centres unmarked) [compound 383], the response vs control in vivo at 100 mg/kg was determined as 293%. For the compound `OC(COCCCN1CCCCC1)c1ccc2sccc2c1` (centres unmarked) [compound 387], the response vs control in vivo at 100 mg/kg worked out at 228%. Consider `OC(COCCN1CCN(Cc2ccccc2)CC1)c1ccc2occc2c1` (centres unmarked) [compound 394, dihydrochloride], for which the response vs control in vivo at 100 mg/kg is 241%.

The experiment is the same for the next values; noted with them: po, 0.5 h, read-out: Antihypoxic activity (%).
Consider `CN1CCN(CCOCC(O)c2cccc3ccccc23)CC1` (centres unmarked) [compound 259, 2-[2-(4-methylpiperazin-1-yl)ethoxy]-1-(1-naphthyl)ethanol dihydrochloride], for which the response vs control in vivo at 100 mg/kg turned out to be 155%. As for `CN(C)CCOCC(O)c1cccc2cccc([N+](=O)[O-])c12` (centres unmarked) [compound 289, 2-[2-(N,N-dimethylamino)ethoxy]-1-(8-nitro-1-naphthyl)ethanol oxalate], the response vs control in vivo at 100 mg/kg was determined as 157%. Same read-out and setting: next, `CNCCOCC(O)c1ccc2sccc2c1` (centres unmarked) [compound 347, 1-(benzo[b]thiophen-5-yl)-2-(N-methylaminoethoxy)ethanol hydrochloride]: 162%. Consider `CCN(CC)CCOCC(O)c1ccc2sccc2c1` (centres unmarked) [compound 388, 2-[2-(N,N-diethylamino)ethoxy]-1-(benzo[b]thiophen-5-yl)ethanol hydrochloride], for which the response vs control in vivo at 100 mg/kg was 213%.

Staying with this experiment, now noted: po, 1 h, read-out: Antihypoxic activity (%).
For `CNCCOCC(O)c1cccc2ccccc12` (centres unmarked) [compound 261, 2-[2-(N-methylamino)ethoxy]-1-(1-naphthyl)ethanol hydrochloride], the response vs control in vivo at 100 mg/kg is 126%.

(Values after patent publication EP0589484A1, “1,2-Ethanediol derivative and salt thereof, process for producing the same, and cerebral function-improving agent comprising the same” (TOYAMA CHEMICAL CO., LTD., priority 1989, dated 1990).)
